Measurements as given in publication PMC5754216 (ACS infectious diseases, 2016).
Entries after “also recorded” stand apart in the source; their conditions may differ. Structures can show the parent of a compound that is named as a salt.

Key:
HeLa cells = details: 10 µM
in vitro = details: human
[1] = biological target: PV RNA-dependent RNA polymerase 3Dpol (Poliovirus type 1, UniProt P03300); format: biochemical
[2] = test system: WT-PV (wild type PV Mahoney); format: cell-based, poliovirus; details: 25 μM, 48 h
[3] = format: in vivo; details: rhesus macaques, pilot PK studies
293T cells = assay: Cytotoxicity in 293T cells; format: cell-based; details: up to 100 μM
[4] = test system: Sb-Gluc (modified PV expressing Gaussia Luciferase); format: cell-based, poliovirus; details: for Ec (%), inhibitory effect on poliovirus replication: 10 µM
Vero cells = assay: Viability of Vero cells; format: cell-based; details: 0.1 μM
[5] = test system: WT-PV (wild type PV Mahoney); assay: microbe, parasite or virus in culture; format: cell-based, poliovirus
Sb-GLuc = format: cell-based, poliovirus

Chain of PV RNA-dependent RNA polymerase 3Dpol (P03300 1749-2209 limits assumed): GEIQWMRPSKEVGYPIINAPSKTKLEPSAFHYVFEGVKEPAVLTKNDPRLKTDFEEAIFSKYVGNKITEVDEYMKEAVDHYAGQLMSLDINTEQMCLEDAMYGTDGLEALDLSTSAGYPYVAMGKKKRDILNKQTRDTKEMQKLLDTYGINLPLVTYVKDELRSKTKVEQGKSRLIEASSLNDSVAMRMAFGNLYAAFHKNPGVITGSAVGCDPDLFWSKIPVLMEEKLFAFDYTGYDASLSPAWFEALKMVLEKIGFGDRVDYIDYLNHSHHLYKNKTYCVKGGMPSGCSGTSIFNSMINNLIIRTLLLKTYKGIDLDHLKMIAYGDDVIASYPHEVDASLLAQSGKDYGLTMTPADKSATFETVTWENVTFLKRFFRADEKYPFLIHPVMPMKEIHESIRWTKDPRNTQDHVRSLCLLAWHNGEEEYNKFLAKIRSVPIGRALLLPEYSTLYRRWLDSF

Nc1nc(O)c2[nH]nnc2n1 [azaguanine-8]
Vc (%), cell viability rate on HeLa cells (HeLa cells): 47.54%

CCCC1C(=O)N2C(N(C)C)=Nc3ccc(C)cc3N2C1=O (stereo not drawn) [azapropazone]
viability at 10 µM (in vitro): 91.2%

CC(=O)O[C@]1(C(C)=O)CC[C@H]2[C@@H]3C=C(Cl)C4=CC(=O)[C@@H]5C[C@@H]5[C@]4(C)[C@H]3CC[C@@]21C [cyproterone acetate]
viability at 10 µM (in vitro): 75.4%

Nc1ccn([C@@H]2O[C@H](COP(=O)(O)OP(=O)(O)OP(=O)(O)O)[C@@H](O)C2(F)F)c(=O)n1 [dFdC-TP, 2′,2′-difluoro-2′-deoxycytidine triphosphate]
Inhibition of dsRNA elongation [1]: apparent inhibition; also recorded: weak inhibition
Inhibition of dsRNA synthesis or elongation [1]: complete inhibition

CCOc1ccc(Cc2nccc3cc(OCC)c(OCC)cc23)cc1OCC [ethaverine hydrochloride]
viability at 10 µM (in vitro): 88.4%

COc1cc2ncnc(Nc3ccc(F)c(Cl)c3)c2cc1OCCCN1CCOCC1 [gefitinib]
viability at 10 µM (in vitro): 80.1%

Nc1ccn([C@@H]2O[C@H](CO)[C@@H](O)C2(F)F)c(=O)n1 [gemcitabine, 2′,2′-difluoro-2′-deoxycytidine]
Protection of HeLa cells from WT-PV (plaque assay) [2]: completely protected
Impact on immune cell counts and liver/kidney functions [3]: subtle and reversible impact
Cytotoxic effect in 293T cells (293T cells): without cytotoxic effect
IC50 ([4]; read-out: IC50 against Sb-GLuc on the basis of luminescent signal): 2.6 µM
viability at 10 µM (in vitro): 87.9%
Effect on Vero cells (Vero cells): kills Vero cells
Increase in viral RNA copies of WT-PV [5]: No noticeable increase
inhibition at 2 µM ([5]; Enterovirus C, HeLa, read-out: Inhibition on WT-PV replication): > 90%
Inhibition of Sb-GLuc replication in 293T cells (Sb-GLuc): inhibited Sb-GLuc replication

CCC(C)n1ncn(-c2ccc(N3CCN(c4ccc(OCC5COC(Cn6cncn6)(c6ccc(Cl)cc6Cl)O5)cc4)CC3)cc2)c1=O (stereo not drawn) [itraconazole]
Protection of HeLa cells from WT-PV (plaque assay) [2]: partial protective effect
viability at 10 µM (in vitro): 79.4%

CC(=O)N1CCN(c2ccc(OCC3COC(Cn4ccnc4)(c4ccc(Cl)cc4Cl)O3)cc2)CC1 (stereo not drawn) [ketoconazole]
Protection of HeLa cells from WT-PV (plaque assay) [2]: partial protective effect
viability at 10 µM (in vitro): 103%

NC[C@H]1O[C@H](O[C@H]2[C@H](O[C@@H]3O[C@H](CO)[C@@H](O)[C@H]3O)[C@@H](O)[C@H](N)C[C@@H]2N)[C@H](N)[C@@H](O)[C@@H]1O.O=S(=O)(O)O [ribostamycin sulfate salt]
Vc (%), cell viability rate on HeLa cells (HeLa cells): 88.8%
Ec (%), inhibitory effect on poliovirus replication [4]: 81.9%

C=C(NC(=O)C(=C)NC(=O)c1csc(C2=N[C@@H]3c4csc(n4)[C@H]4NC(=O)c5csc(n5)[C@H]([C@](C)(O)[C@@H](C)O)NC(=O)[C@H]5CSC(=N5)/C(=C/C)NC(=O)[C@H]([C@@H](C)O)NC(=O)c5csc(n5)[C@]3(CC2)NC(=O)[C@H](C)NC(=O)C(=C)NC(=O)[C@H](C)NC(=O)[C@H]([C@@H](C)CC)N[C@@H]2C=Cc3c([C@H](C)O)cc(nc3[C@H]2O)C(=O)O[C@@H]4C)n1)C(N)=O [thiostrepton]
viability at 10 µM (in vitro): 87.9%

Cl.Cl.OCCN1CCN(CC/C=C2/c3ccccc3Sc3ccc(Cl)cc32)CC1 [zuclopenthixol hydrochloride]
Vc (%), cell viability rate on HeLa cells (HeLa cells): 92.0%
Ec (%), inhibitory effect on poliovirus replication [4]: 81.8%

meclocycline sulfosalicylate
Vc (%), cell viability rate on HeLa cells (HeLa cells): 81.5%
Ec (%), inhibitory effect on poliovirus replication [4]: 82.1%
